In the kinase profiling compilation of Christmann-Franck et al. (2016):

Tests used:
Assay in all cases: KINOMEscan competition binding
Conditions in all cases: compound 10.0 µM
ACVRL1 (human) = ACVRL1 (human) (UniProt P37023)
BRSK1 (human) = BRSK1 (human) (UniProt Q8TDC3)
CAMK2A (human) = CAMK2A (human) (UniProt Q9UQM7)
CDC42BPG (human) = CDC42BPG (human) (UniProt Q6DT37)
CDK15 (human) = CDK15 (human) (UniProt Q96Q40)
CDK18 (human) = CDK18 (human) (UniProt Q07002)
CDK7 (human) = CDK7 (human) (UniProt P50613)
CHUK (human) = CHUK (human) (UniProt O15111)
CSNK1G1 (human) = CSNK1G1 (human) (UniProt Q9HCP0)
DCLK2 (human) = DCLK2 (human) (UniProt Q8N568)
EPHB2 (human) = EPHB2 (human) (UniProt P29323)
FYN (human) = FYN (human) (UniProt P06241)
IKBKB (human) = IKBKB (human) (UniProt O14920)
[1] = target: JAK1 JH1 catalytic (human) (UniProt P23458)
MAP2K2 (human) = MAP2K2 (human) (UniProt P36507)
MAP3K10 (human) = MAP3K10 (human) (UniProt Q02779)
MAP3K11 (human) = MAP3K11 (human) (UniProt Q16584)
MAPK4 (human) = MAPK4 (human) (UniProt P31152)
MAPK9 (human) = MAPK9 (human) (UniProt P45984)
MAPKAPK2 (human) = MAPKAPK2 (human) (UniProt P49137)
MKNK1 (human) = MKNK1 (human) (UniProt Q9BUB5)
Chain of MKNK1 (human) (Q9BUB5 whole entry, looked up): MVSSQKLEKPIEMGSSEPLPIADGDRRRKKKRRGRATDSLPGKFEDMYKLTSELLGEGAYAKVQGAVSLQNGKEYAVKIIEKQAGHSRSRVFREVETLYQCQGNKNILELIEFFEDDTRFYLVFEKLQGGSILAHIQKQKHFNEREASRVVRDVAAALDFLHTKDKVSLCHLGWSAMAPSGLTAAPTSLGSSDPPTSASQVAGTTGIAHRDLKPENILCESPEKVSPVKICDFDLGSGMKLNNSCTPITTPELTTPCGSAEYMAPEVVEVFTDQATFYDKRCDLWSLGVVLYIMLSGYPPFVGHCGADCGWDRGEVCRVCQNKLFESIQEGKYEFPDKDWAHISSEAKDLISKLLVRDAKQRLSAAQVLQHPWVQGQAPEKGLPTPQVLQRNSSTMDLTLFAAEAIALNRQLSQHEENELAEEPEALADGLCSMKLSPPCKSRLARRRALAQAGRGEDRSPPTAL

MYLK2 (human) = MYLK2 (human) (UniProt Q9H1R3)
NTRK2 (human) = NTRK2 (human) (UniProt Q16620)
PDGFRB (human) = PDGFRB (human) (UniProt P09619)
PLK1 (human) = PLK1 (human) (UniProt P53350)
Chain of PLK1 (human) (P53350 whole entry, looked up): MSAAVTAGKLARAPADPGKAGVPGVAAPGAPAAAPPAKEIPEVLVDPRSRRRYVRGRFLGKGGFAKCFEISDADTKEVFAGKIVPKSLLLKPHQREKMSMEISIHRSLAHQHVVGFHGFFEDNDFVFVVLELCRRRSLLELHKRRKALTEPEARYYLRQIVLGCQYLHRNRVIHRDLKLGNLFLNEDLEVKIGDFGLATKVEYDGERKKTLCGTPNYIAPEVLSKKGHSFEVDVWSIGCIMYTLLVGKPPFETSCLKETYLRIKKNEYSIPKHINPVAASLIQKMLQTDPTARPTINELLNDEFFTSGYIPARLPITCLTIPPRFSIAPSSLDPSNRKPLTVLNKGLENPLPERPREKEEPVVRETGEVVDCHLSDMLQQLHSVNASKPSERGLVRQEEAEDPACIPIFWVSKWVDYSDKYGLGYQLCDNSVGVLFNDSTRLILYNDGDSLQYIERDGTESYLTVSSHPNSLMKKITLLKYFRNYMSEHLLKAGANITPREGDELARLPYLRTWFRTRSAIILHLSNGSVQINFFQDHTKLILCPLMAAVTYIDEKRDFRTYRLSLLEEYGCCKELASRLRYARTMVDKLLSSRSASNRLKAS

PRKACA (human) = PRKACA (human) (UniProt P17612)
PRKD2 (human) = PRKD2 (human) (UniProt Q9BZL6)
Chain of PRKD2 (human) (Q9BZL6 whole entry, looked up): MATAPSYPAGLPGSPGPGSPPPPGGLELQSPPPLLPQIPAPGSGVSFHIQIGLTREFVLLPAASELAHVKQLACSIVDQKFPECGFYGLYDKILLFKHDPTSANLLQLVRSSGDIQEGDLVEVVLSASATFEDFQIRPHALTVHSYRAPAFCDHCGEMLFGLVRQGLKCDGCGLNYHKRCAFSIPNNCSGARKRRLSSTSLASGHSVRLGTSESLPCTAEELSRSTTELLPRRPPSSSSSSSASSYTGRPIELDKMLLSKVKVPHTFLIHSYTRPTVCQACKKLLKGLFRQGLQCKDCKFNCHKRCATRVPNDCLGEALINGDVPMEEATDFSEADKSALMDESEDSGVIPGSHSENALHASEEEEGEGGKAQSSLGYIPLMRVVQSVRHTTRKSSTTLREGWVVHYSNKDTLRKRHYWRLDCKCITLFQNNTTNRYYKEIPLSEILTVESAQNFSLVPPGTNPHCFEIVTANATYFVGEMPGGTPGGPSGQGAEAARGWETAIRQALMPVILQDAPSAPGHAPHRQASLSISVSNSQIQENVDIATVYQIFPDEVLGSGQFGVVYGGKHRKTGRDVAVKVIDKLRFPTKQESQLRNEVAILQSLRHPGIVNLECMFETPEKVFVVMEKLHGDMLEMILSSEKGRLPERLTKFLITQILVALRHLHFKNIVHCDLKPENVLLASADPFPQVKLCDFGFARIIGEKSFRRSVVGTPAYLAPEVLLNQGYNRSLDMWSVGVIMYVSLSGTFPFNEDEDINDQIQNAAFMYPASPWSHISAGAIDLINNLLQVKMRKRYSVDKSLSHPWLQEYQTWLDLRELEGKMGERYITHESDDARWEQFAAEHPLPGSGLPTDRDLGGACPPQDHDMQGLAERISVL

RIOK3 (human) = RIOK3 (human) (UniProt O14730)
Chain of RIOK3 (human) (O14730 whole entry, looked up): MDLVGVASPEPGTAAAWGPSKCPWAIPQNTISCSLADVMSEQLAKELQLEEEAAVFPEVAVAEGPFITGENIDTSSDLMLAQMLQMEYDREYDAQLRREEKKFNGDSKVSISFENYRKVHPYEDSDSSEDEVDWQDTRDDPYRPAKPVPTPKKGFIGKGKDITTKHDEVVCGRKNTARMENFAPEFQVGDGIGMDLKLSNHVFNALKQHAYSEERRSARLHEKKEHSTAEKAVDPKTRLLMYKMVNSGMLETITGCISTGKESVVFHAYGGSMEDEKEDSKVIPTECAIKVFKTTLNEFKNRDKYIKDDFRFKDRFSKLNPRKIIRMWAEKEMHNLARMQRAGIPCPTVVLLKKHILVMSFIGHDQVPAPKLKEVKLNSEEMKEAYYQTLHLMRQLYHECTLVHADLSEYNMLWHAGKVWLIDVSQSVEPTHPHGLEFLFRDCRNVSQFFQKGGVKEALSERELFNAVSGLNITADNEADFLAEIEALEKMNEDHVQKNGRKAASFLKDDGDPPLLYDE

RPS6KA1 KD2 (human) = RPS6KA1 KD2 (human) (UniProt Q15418)
Chain of RPS6KA1 KD2 (human) (Q15418 whole entry, looked up): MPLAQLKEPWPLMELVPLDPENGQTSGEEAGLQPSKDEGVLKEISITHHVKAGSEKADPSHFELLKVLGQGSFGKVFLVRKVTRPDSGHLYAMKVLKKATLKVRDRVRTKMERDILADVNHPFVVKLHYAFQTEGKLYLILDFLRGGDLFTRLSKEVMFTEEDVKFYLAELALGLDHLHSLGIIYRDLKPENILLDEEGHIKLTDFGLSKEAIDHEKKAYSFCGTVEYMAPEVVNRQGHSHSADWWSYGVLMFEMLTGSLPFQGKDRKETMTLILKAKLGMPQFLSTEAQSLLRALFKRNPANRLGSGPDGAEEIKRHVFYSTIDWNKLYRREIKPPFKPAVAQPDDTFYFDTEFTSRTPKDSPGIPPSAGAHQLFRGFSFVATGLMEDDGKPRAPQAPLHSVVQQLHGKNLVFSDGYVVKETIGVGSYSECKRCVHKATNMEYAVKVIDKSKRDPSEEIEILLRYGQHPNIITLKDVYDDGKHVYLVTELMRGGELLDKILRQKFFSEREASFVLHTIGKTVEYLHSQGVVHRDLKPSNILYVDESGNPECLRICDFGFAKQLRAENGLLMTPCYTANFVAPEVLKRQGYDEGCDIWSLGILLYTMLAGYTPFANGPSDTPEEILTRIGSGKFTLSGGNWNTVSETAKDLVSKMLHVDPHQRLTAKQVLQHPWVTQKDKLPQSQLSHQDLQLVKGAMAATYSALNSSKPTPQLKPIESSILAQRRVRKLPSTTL

RPS6KA2 KD1 (human) = RPS6KA2 KD1 (human) (UniProt Q15349)
SGK110 (human) = SGK110 (human) (UniProt P0C264)
SRPK1 (human) = SRPK1 (human) (UniProt Q96SB4)
STK11 (human) = STK11 (human) (UniProt Q15831)
STK17A (human) = STK17A (human) (UniProt Q9UEE5)
STK33 (human) = STK33 (human) (UniProt Q9BYT3)
TAOK3 (human) = TAOK3 (human) (UniProt Q9H2K8)
TNK2 (human) = TNK2 (human) (UniProt Q07912)
TTK (human) = TTK (human) (UniProt P33981)
Chain of TTK (human) (P33981 whole entry, looked up): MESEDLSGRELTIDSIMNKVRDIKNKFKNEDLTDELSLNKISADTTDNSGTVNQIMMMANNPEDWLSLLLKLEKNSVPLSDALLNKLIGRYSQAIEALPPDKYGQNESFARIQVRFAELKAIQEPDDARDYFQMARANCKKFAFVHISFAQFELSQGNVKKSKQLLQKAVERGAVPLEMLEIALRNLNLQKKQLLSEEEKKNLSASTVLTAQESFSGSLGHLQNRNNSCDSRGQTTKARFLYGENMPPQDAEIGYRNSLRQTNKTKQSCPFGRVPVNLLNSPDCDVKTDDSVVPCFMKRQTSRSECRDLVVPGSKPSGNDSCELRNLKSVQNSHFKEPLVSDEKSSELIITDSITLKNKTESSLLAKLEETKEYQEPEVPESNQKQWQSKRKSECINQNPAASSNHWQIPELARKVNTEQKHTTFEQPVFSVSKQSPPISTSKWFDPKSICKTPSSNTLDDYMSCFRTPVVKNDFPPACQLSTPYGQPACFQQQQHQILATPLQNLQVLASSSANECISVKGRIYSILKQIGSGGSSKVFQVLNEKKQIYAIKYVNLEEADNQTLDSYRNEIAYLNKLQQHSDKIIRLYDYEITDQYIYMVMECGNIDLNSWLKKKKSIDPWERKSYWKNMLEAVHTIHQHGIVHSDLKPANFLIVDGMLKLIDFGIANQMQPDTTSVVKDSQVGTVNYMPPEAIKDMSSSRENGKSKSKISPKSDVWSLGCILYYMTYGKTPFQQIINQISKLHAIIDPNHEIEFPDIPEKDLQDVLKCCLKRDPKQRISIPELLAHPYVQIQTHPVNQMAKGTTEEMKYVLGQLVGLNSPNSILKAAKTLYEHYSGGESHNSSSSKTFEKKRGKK

[2] = target: TYK2 JH1 catalytic (human) (UniProt P29597)
WEE1 (human) = WEE1 (human) (UniProt P30291)

Chain of BRSK1 (human) (Q8TDC3 whole entry, looked up): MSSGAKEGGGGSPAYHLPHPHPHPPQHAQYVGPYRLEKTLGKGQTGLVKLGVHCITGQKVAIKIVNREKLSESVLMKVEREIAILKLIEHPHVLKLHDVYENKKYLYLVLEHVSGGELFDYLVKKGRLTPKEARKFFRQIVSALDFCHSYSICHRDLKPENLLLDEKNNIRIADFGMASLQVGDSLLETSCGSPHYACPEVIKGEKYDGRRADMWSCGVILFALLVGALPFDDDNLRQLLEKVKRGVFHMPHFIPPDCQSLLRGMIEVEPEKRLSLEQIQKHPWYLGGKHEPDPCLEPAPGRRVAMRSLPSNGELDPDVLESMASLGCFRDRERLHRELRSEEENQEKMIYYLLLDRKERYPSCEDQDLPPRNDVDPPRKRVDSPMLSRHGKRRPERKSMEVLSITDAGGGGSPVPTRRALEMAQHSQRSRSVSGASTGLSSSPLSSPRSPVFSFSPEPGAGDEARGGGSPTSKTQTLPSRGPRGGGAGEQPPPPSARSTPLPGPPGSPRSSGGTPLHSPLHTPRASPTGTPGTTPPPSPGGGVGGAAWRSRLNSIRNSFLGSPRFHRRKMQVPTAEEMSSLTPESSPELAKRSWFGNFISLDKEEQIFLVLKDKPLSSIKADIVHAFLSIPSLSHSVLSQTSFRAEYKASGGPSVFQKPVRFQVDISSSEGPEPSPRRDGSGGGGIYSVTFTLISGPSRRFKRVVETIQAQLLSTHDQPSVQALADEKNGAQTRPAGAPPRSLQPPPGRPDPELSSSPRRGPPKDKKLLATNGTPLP

SMILES | kinase still bound, per cent of control (ACVRL1 (human)) | kinase still bound, per cent of control (BRSK1 (human)) | kinase still bound, per cent of control (CAMK2A (human)) | kinase still bound, per cent of control (CDC42BPG (human)) | kinase still bound, per cent of control (CDK15 (human)) | kinase still bound, per cent of control (CDK18 (human)) | kinase still bound, per cent of control (CDK7 (human)) | kinase still bound, per cent of control (CHUK (human)) | kinase still bound, per cent of control (CSNK1G1 (human)) | kinase still bound, per cent of control (DCLK2 (human)) | kinase still bound, per cent of control (EPHB2 (human)) | kinase still bound, per cent of control (FYN (human)) | kinase still bound, per cent of control (IKBKB (human)) | kinase still bound, per cent of control [1] | kinase still bound, per cent of control (MAP2K2 (human)) | kinase still bound, per cent of control (MAP3K10 (human)) | kinase still bound, per cent of control (MAP3K11 (human)) | kinase still bound, per cent of control (MAPK4 (human)) | kinase still bound, per cent of control (MAPK9 (human)) | kinase still bound, per cent of control (MAPKAPK2 (human)) | other results
COc1cc(N2CCN(C)CC2)ccc1Nc1nc(N)c(C(=O)c2c(Cl)cccc2Cl)s1 | 84% | 91% | 20% | 100% | 26% | 78% | 2.8% | 58% | 100% | 4.1% | 100% | 89% | 96% | 100% | 93% | 100% | 96% | 90% | 100% | 100% | kinase still bound, per cent of control (MKNK1 (human)): 51%; kinase still bound, per cent of control (MYLK2 (human)): 87%; kinase still bound, per cent of control (NTRK2 (human)): 80%; kinase still bound, per cent of control (PDGFRB (human)): 100%; kinase still bound, per cent of control (PLK1 (human)): 72%; kinase still bound, per cent of control (PRKACA (human)): 91%; kinase still bound, per cent of control (PRKD2 (human)): 78%; kinase still bound, per cent of control (RIOK3 (human)): 100%; kinase still bound, per cent of control (RPS6KA1 KD2 (human)): 58%; kinase still bound, per cent of control (RPS6KA2 KD1 (human)): 84%; kinase still bound, per cent of control (SGK110 (human)): 100%; kinase still bound, per cent of control (SRPK1 (human)): 100%; kinase still bound, per cent of control (STK11 (human)): 100%; kinase still bound, per cent of control (STK17A (human)): 100%; kinase still bound, per cent of control (STK33 (human)): 83%; kinase still bound, per cent of control (TAOK3 (human)): 12%; kinase still bound, per cent of control (TNK2 (human)): 97%; kinase still bound, per cent of control (TTK (human)): 20%; kinase still bound, per cent of control [2]: 90%; kinase still bound, per cent of control (WEE1 (human)): 100%
O=C1Nc2ccc(I)cc2/C1=C/c1cc(Br)c(O)c(Br)c1 | 100% | 85% | 20% | 91% | 100% | 100% | 67% | 100% | 69% | 94% | 100% | 52% | 100% | 100% | 74% | 93% | 38% | 100% | 72% | 100% | kinase still bound, per cent of control (MKNK1 (human)): 83%; kinase still bound, per cent of control (MYLK2 (human)): 85%; kinase still bound, per cent of control (NTRK2 (human)): 55%; kinase still bound, per cent of control (PDGFRB (human)): 5.5%; kinase still bound, per cent of control (PLK1 (human)): 100%; kinase still bound, per cent of control (PRKACA (human)): 100%; kinase still bound, per cent of control (PRKD2 (human)): 100%; kinase still bound, per cent of control (RIOK3 (human)): 17%; kinase still bound, per cent of control (RPS6KA1 KD2 (human)): 12%; kinase still bound, per cent of control (RPS6KA2 KD1 (human)): 58%; kinase still bound, per cent of control (SGK110 (human)): 100%; kinase still bound, per cent of control (SRPK1 (human)): 40%; kinase still bound, per cent of control (STK11 (human)): 84%; kinase still bound, per cent of control (STK17A (human)): 2.5%; kinase still bound, per cent of control (STK33 (human)): 94%; kinase still bound, per cent of control (TAOK3 (human)): 87%; kinase still bound, per cent of control (TNK2 (human)): 74%; kinase still bound, per cent of control (TTK (human)): 17%; kinase still bound, per cent of control [2]: 8.2%; kinase still bound, per cent of control (WEE1 (human)): 100%
